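Interpolation was linear, between the two tested concentrations surrounding the appropriate level; five concentrations were tested over 48 hours in 96-well plates. GI50 = concentration required for 50% inhibition of growth.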 Active and inactive are the calls of the source. Cut-off read from the data, not from the text of the source: active = GI50 up to about 1.1 µM and inactive = higher.
Experiments:
Assay in all cases: inhibition of tumour cell growth, NCI panel, 48 h
[1] = test system: NCI-H522
[2] = test system: M14
[3] = test system: RPMI-8226
[4] = test system: HCT-116
[5] = test system: SF-295
[6] = test system: CAKI-1
[7] = test system: RXF 393
[8] = test system: HOP-62
[9] = test system: HT-29
[10] = test system: SK-MEL-2
[11] = test system: 786-0
[12] = test system: OVCAR-8
[13] = test system: SF-268
[14] = test system: CCRF-CEM
[15] = test system: SK-MEL-28
[16] = test system: EKVX
[17] = test system: HCC 2998
[18] = test system: A498
[19] = test system: UACC-62
[20] = test system: COLO 205

Measured: GI50

O=C(NC(C(F)(F)F)(C(F)(F)F)P(=O)(Cc1ccccc1)Cc1ccccc1)C(C(F)(F)F)C(F)(F)F
inactive: [1] 26.2 µM | [2] 18.4 µM | [3] 25.2 µM | [4] 17.3 µM | [5] 20.7 µM | [6] 52.4 µM | [7] 21 µM | [8] 20.6 µM | [9] 19.8 µM | [10] 26.4 µM | [11] 17.2 µM | [12] 22.3 µM | [13] 23.3 µM | [14] 29.6 µM | [15] 25.6 µM | [16] 26.4 µM | [17] 27.5 µM | [18] 17.3 µM | [19] 27.2 µM | [20] 18.4 µM

COc1ccc(/C=C(\NC(=O)c2ccccc2)c2nc3ccccc3[nH]2)cc1OC
inactive: [1] > 100 µM | [2] > 100 µM | [3] 80.5 µM | [4] > 100 µM | [5] > 100 µM | [6] > 100 µM | [7] > 100 µM | [8] > 100 µM | [9] > 100 µM | [10] > 100 µM | [11] > 100 µM | [12] > 100 µM | [13] > 100 µM | [14] 85.9 µM | [15] > 100 µM | [16] > 100 µM | [17] > 100 µM | [18] > 100 µM | [19] > 100 µM | [20] > 100 µM

CCOC(=O)/C(=C\c1ccc(N(CCC#N)CCC#N)cc1C)NC(=O)/C=C/c1ccccc1
inactive: [1] > 100 µM | [2] > 100 µM | [3] > 100 µM | [4] > 100 µM | [5] > 100 µM | [6] > 100 µM | [7] > 100 µM | [8] > 100 µM | [9] > 100 µM | [10] > 100 µM | [11] > 100 µM | [12] > 100 µM | [13] > 100 µM | [14] > 100 µM | [15] > 100 µM | [16] > 100 µM | [17] 62.2 µM | [18] > 100 µM | [19] > 100 µM | [20] > 100 µM

CC1(C)O[C@@H](CCl)C[C@H](C#N)O1
inactive: [1] > 100 µM | [2] > 100 µM | [3] > 100 µM | [4] > 100 µM | [5] > 100 µM | [6] > 100 µM | [7] > 100 µM | [8] > 100 µM | [9] > 100 µM | [10] > 100 µM | [11] > 100 µM | [12] > 100 µM | [13] > 100 µM | [14] > 100 µM | [15] > 100 µM | [16] > 100 µM | [17] > 100 µM | [18] > 100 µM | [19] > 100 µM | [20] > 100 µM

Reference: ChEMBL document CHEMBL1201862, “PubChem BioAssay data set” (2004)
